Experiments:
[1] = test system: Rat model loaded with high cholesterol diet; assay: Blood cholesterol lowering effect in rats fed on a high cholesterol diet (Test Example 1); type: in vivo; conditions: treatment model; 0.3 mg/kg at a time, oral twice a day; control group = 100%
Protocol: Blood Cholesterol Lowering Effect in Rats Fed on a High Cholesterol Diet
In this test example, blood cholesterol level lowering effect in rats fed on a high cholesterol diet was tested according to the method described in J. Lipid, Res., 1995, 36, 1098-1105.
That is, a diet containing 0.4% cholesterol and 0.5% of bile acid was given to 7 to 9 weeks old SD (IGS) male rats for 5 days before the test to increase the blood cholesterol level. […] Cholestimide (trade name: CHOLEBINE GRANULE 70% manufactured by MITSUBISHI TOKYO PHARMACEUTICALS, INC.), which is an anion exchange resin, was suspended in distilled water while the test compound was either dissolved or suspended in distilled water. These were forcibly orally administered twice a day every day from the day of beginning of the test (each n=8). After 3 hours from the administration of the drug on the last day of the test, a blood sample was taken from a jugular vein pool and serum cholesterol level was measured to study the effect of the test compound. Further, as a control group, a group (n=8) fed on only high cholesterol diet and given distilled water (1 ml/kg) was prepared and the same test procedure was followed. A commercially available kit was used for the measurement of total cholesterol and HDL cholesterol. The value obtained by subtracting an HDL cholesterol value from the total cholesterol value was taken as an LDL+VLDL cholesterol value. Assuming the LDL+VLDL cholesterol value of the control group, for which the test compound was not used, as 100%, the rate of decrease (percentage of decrease) of LDL +VLDL cholesterol value when a fixed amount of the test compound was used, was determined.

rat IBAT = biological target: T1, rat IBAT (Rattus norvegicus, UniProt Q62633); assay: In vitro assay of temporarily expressed rat IBAT transporter using Cos 7 cells (Test Example 8); type: cell-based; conditions: Cos 7 cells temporarily expressing rat IBAT; [3H] taurocholate 8 μM, 37° C., 60 minutes
T1 construct: expressed in transfected cells; host or cells: Cos 7
T1 sequence (Q62633 1-348): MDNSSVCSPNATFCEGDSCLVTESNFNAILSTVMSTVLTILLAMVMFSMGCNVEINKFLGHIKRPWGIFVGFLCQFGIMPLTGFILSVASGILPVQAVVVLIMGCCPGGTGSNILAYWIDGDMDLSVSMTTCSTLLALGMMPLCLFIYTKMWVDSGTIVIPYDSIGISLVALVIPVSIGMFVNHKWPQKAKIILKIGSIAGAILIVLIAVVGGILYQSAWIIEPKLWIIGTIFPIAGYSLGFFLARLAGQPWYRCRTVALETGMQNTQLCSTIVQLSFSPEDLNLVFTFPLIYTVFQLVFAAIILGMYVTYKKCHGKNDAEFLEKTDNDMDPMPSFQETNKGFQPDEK
Protocol: In Vitro Assay of Compounds Which Inhibit Temporarily Expressed Human IBAT Transporter or Rat IBAT Transporter Using Cos 7 Cells
In this test example, the in vitro assay of the compounds which inhibit temporarily expressed human IBAT transporter or rat IBAT transporter using Cos cells was carried out according to the method described in Am. J. Physiol., 274, G157-169.
That is, […] Cos 7 were inoculated on a 24-well cell plate. One day later, 0.3 μg per well of cDNA of a human IBAT or a rat IBAT was transfected by using FuGENE6 (manufactured by ROCHE PHARMACEUTICAL CO., LTD.). For the assay, the cells cultured for one day after the transfection were used and the following procedure was followed. The cells were washed once with an assay buffer, Hank's buffer solution containing 25 mM glucose and with 10 mM HEPES (pH 7.4), and then the assay buffer was replaced by an assay buffer to which the test compound was added. After adding [^3H] taurocholate to a final concentration of 8 μM, the cells were incubated at 37° C. for 60 minutes. [^3H] taurocholate was allowed to be incorporated in Cos 7 cells through human IBAT or rat IBAT. The reaction was stopped by washing twice with a buffer prepared by adding 1 mM taurocholate to the assay buffer and lyzing the cells with 0.2M NaOH. Measurement of radioactivity was carried out by introducing the cell lyzate in 4 ml of liquid scintillation cocktail, stirring the mixture well, and then measuring the radioactivity by a scintillation counter.

[2] = test system: Cholic acid-loaded rat model; assay: Bile acid-decreasing effect in portal vein of rats loaded with cholic acid (Test Example 2); type: in vivo; conditions: 0.1 mg/kg oral with cholic acid 200 mg/kg; portal vein blood after 2 hours; HCO-60 0.1%
Outline: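 SD (IGS) rats aged 7 to 9 weeks were fasted from the day before testing, then given cholic acid (200 mg/kg) together with the test compound by forced oral dosing. Portal vein blood was drawn 2 hours later, and total serum bile acid was measured with a commercial kit (n=6). The percent decrease was calculated relative to a cholic acid-only control group set at 100%.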

[3] = test system: steatohepatitis model rats; assay: Steatohepatitis model, choline-deficient diet (Test Example 15); type: in vivo, rat; conditions: 3 mg/kg oral once a day for 2 weeks; n = 4; average ± standard error
Description: In this test example, the steatohepatitis model was examined referring to the method of Okan A., et al. (Dig Dis Sci 47:2389-2397, 2002).
That is, 7 weeks old Wistar rats were fed with a choline-deficient diet (manufactured by Oriental Yeast Co., Ltd.) for 2 weeks to prepare a steatohepatitis model. A suspension of a test compound in an aqueous solution of 0.5% methyl cellulose (manufactured by WAKO PURE CHEMICAL […], LTD.) and an aqueous solution of 0.5% methyl cellulose (manufactured by WAKO PURE CHEMICAL […], LTD.) as a control were orally administered once a day for consecutive 2 weeks. On the day next to the last day of administration, a blood sample was taken from the abdominal aorta and AST (GOT) and ALT (GPT) in the blood were measured by using measuring kits (GOTII-HA TEST WAKO and GPTII-HA TEST WAKO, respectively, the both were manufactured by WAKO PURE CHEMICAL […], LTD.) on an auto analyzer (NITTECH ANALYZER SUPER Z818).

SMILES | Rate of decrease (%) of LDL + VLDL [1] | IC50 (rat IBAT) | Rate of decrease (%) of bile acid [2] | ALT [3] | AST [3]
CCCCC1(CCCC)CS(=O)(=O)c2ccc(N(C)C)cc2C(c2cccc(NC(=S)CCCCC[N+]34CCC(CC3)CC4)c2)N1.[Br-] (centres unmarked) [Example 1, 1-{5-[3-(3,3-Dibutyl-7-dimethylamino-1,1-dioxo-2,3,4,5-tetrahydro-1,4-benzothiazepin-5-yl)phenylthiocarbamoyl]pentyl}-1-azoniabicyclo[2.2.2]octane bromide] | 49% | 7 nM |  |  | 
CCCCC1(CCCC)CS(=O)(=O)c2ccc(N(C)C)cc2C(c2cccc(NC(=S)Nc3ccc(C[N+](C)(C)Cc4ccccc4)cc3)c2)N1.[Br-] (centres unmarked) [Example 3440] | 36% | 10 nM | 26% | 167 ± 93 IU/L | 125 ± 34 IU/L
C#CC[N+](C)(Cc1ccccc1)Cc1ccc(NC(=S)Nc2cccc(C3NC(CCCC)(CCCC)CS(=O)(=O)c4ccc(N(C)C)cc43)c2)cc1 (centres unmarked) [Example 3448] | 20% |  | 25% | 143 ± 79 IU/L | 134 ± 23 IU/L
CCCCC1(CCCC)CS(=O)(=O)c2ccc(N(C)C)cc2C(c2cccc(NC(=S)Nc3ccc(C[N+]4(Cc5ccccc5)CCC(O)CC4)cc3)c2)N1.[Br-] (centres unmarked) [Example 3605] | 28% |  | 24% | 121 ± 36 IU/L | 80 ± 34 IU/L
CCCCC1(CCCC)CS(=O)(=O)c2ccc(N(C)C)cc2C(c2cccc(NC(=S)Nc3ccc(C[N+]45CCC(c6ccccc6)(CC4)CC5)cc3)c2)N1.[Br-] (centres unmarked) [Example 3696] | 25% |  | 13% | 145 ± 34 IU/L | 98 ± 23 IU/L
CCCCC1(CCCC)CS(=O)(=O)c2ccc(N(C)C)cc2C(c2cccc(NC(=S)Nc3ccc(C[n+]4ccc(C(C)(C)C)cc4)cc3)c2)N1.[Br-] (centres unmarked) [Example 3713] | 41% |  | 32% | 118 ± 36 IU/L | 77 ± 37 IU/L
CCCCC1(CCCC)CS(=O)(=O)c2ccc(N(C)C)cc2C(c2cccc(NC(=S)Nc3ccc(C[n+]4cccc(CCCO)c4)cc3)c2)N1.[Br-] (centres unmarked) [Example 3747] | 48% |  | 40% | 102 ± 50 IU/L | 63 ± 86 IU/L
CCCCC1(CCCC)CS(=O)(=O)c2ccc(N(C)C)cc2C(c2cccc(NC(=S)Nc3ccc(C[n+]4cccc(CCC(=O)OC)c4)cc3)c2)N1.[Br-] (centres unmarked) [Example 3752] | 50% |  | 42% | 88 ± 45 IU/L | 69 ± 98 IU/L
CCCCC1(CCCC)CS(=O)(=O)c2ccc(N(C)C)cc2C(c2cccc(NC(=S)Nc3ccc(C[n+]4ccccc4CCC)cc3)c2)N1.[Br-] (centres unmarked) [Example 5408] | 43% |  | 35% | 149 ± 38 IU/L | 103 ± 45 IU/L
